Where two headings read alike, the source gives them in different places.
How the values were obtained:
[1] = molecular target: KDR (Homo sapiens, UniProt P35968); assay: Kinome profiling KDR; format: biochemical; details: read-out: Inhibitory activity KDR; for inhibition at 0.1 µM: 100 nM
Procedure: (§1) . The kinome-wide selectivity was determined following the methods previously reported by Mohedas et al., ACS Chem Biol 2013, 8, 1291-1302 and Sanvitale et al., PLoS One 2013, 8, e62721.

[2] = molecular target: LYNB (Homo sapiens, UniProt P07948); assay: Kinome profiling LYNB; format: biochemical; details: read-out: Inhibitory activity LYNB; for inhibition at 0.1 µM: 100 nM
Sequence of LYNB (P07948 1-491 isoform P07948-2): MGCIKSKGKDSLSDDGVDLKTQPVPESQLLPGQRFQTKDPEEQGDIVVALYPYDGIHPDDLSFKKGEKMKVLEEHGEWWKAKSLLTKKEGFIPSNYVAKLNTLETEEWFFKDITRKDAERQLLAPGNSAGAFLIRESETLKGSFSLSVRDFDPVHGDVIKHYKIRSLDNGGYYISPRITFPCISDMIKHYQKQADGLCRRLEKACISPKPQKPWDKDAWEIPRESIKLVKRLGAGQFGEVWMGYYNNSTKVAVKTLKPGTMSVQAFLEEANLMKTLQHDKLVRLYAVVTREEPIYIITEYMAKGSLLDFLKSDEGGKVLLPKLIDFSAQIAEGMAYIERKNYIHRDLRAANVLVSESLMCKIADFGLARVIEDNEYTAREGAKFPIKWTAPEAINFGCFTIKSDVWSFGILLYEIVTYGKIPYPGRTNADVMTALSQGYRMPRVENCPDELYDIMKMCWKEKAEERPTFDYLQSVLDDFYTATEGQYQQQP
Procedure: as §1

[3] = molecular target: T1, CAMK4 (Homo sapiens, UniProt Q16566); assay: Kinome profiling CAMK4; format: biochemical; details: read-out: Inhibitory activity CAMK4; for inhibition at 0.1 µM: 100 nM
T1 sequence (Q16566 1-473): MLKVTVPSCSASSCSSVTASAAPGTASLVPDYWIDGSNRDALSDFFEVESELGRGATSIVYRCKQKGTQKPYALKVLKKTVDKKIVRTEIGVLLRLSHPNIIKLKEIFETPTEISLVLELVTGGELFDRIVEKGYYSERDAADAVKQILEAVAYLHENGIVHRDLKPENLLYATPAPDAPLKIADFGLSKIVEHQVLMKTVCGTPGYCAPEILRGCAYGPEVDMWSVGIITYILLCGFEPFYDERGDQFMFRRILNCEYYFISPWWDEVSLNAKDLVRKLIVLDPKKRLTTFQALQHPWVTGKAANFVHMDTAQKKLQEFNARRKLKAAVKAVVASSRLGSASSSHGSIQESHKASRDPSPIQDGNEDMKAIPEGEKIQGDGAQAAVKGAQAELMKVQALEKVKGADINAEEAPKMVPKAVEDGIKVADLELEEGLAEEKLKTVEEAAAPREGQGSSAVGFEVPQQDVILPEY
Procedure: as §1

[4] = molecular target: MRCK-α (Homo sapiens, UniProt Q5VT25); assay: Kinome profiling MRCK-α; format: biochemical; details: read-out: Inhibitory activity MRCK-α; for inhibition at 0.1 µM: 100 nM
Sequence of MRCK-α (Q5VT25 whole entry): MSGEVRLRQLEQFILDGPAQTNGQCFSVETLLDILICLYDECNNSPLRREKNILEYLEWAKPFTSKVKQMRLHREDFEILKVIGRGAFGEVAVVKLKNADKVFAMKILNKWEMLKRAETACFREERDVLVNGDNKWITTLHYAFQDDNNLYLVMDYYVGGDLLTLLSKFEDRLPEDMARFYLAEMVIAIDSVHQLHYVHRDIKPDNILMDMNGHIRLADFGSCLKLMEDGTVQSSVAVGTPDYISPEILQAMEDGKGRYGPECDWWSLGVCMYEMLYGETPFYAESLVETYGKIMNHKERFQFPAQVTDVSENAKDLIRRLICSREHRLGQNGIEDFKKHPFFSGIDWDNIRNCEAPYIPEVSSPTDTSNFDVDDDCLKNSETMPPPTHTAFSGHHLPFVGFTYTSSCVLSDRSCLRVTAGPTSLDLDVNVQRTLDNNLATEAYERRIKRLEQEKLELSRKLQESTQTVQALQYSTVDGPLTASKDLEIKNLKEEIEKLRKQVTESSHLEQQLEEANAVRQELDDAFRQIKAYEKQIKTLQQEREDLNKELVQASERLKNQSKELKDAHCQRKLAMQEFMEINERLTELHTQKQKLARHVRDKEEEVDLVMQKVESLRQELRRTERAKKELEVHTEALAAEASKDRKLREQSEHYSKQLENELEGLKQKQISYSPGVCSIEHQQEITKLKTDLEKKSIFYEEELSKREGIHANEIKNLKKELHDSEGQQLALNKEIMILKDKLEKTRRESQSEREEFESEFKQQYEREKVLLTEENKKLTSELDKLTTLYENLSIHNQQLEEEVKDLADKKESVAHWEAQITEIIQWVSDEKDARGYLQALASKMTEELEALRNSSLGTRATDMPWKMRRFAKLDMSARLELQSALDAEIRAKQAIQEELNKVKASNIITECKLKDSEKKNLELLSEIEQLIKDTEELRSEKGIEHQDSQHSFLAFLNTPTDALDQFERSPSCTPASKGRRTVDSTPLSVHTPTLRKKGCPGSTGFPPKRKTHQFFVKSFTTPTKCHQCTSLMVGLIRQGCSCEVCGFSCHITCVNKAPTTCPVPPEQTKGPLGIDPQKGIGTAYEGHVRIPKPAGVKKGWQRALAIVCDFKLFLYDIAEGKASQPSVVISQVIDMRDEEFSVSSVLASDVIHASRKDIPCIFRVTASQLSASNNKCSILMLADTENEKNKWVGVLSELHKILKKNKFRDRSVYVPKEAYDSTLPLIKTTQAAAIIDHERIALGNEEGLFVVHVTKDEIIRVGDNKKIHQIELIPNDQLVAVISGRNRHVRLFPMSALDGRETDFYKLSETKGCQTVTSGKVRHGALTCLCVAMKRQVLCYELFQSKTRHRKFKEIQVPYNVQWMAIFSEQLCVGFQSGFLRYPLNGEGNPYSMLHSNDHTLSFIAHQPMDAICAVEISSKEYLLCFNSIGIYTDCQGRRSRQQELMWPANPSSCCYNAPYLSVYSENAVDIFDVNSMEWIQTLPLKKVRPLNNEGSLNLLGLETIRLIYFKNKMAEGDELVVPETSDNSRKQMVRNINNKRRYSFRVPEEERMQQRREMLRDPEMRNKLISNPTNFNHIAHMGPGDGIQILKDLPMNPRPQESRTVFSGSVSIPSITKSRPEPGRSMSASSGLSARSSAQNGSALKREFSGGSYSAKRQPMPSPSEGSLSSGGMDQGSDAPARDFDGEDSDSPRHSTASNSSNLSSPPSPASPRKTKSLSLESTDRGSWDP
Procedure: as §1

[5] = molecular target: T2, ALK2 (Homo sapiens, UniProt Q04771, Q207D); assay: Thermal shift kinase assay ALK2; format: binding; details: for ΔTm at 10 µM: 10 μM inhibitor; for ΔTmDiff.: ALK2 minus ALK5; for ΔT ALK2: Table 6; for ΔT Diff.: Table 6, ALK2 minus ALK5
T2 construct: His tag (TEV-cleavable) (N, cleaved yes); made in house; host or cells: Sf9 insect cells (baculovirus)
T2 sequence (Q04771 201-499 Q207D): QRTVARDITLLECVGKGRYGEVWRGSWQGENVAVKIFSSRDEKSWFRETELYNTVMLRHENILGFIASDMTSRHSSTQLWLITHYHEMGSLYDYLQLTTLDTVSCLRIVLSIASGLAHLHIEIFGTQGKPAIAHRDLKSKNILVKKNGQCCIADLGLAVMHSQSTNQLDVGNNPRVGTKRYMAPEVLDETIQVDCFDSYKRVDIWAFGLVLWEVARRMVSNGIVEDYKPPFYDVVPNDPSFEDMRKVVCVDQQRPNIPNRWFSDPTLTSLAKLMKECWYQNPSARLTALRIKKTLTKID
Procedure: Thermal melting experiments were performed using a Real Time PCR machine Mx3005p (Stratagene) with a protein concentration of 1-2 μM and 10 μM inhibitor as described by Niesen et al., Nat Protoc 2007, 2, 2212-21. Recombinant human kinases for DSF screening were prepared by SGC using the published methods of Sanvitale et al., PLoS One 2013, 8, e62721. The potency and selectivity of certain compounds of the invention based on thermal shift kinase and ligand induced transcriptional activity assays are shown in Table 2.

[6] = molecular target: T3, TSSK2 (Homo sapiens, UniProt Q96PF2); assay: Kinome profiling TSSK2; format: biochemical; details: read-out: Inhibitory activity TSSK2; for inhibition at 0.1 µM: 100 nM
T3 sequence (Q96PF2 1-358): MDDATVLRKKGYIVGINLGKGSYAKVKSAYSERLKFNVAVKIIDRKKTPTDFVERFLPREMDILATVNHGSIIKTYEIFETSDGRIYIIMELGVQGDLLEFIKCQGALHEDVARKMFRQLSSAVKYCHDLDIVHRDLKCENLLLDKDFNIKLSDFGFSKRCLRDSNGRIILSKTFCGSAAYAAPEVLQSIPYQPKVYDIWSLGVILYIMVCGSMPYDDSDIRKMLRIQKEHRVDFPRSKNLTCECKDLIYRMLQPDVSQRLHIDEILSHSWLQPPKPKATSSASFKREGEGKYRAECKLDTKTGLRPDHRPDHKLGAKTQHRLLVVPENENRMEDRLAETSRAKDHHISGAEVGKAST
Procedure: as §1

[7] = molecular target: PDGFRβ (Homo sapiens, UniProt P09619); assay: Kinome profiling PDGFRβ; format: biochemical; details: for inhibition at 0.1 µM: 100 nM
Procedure: as §1

[8] = molecular target: T4, PDK1 (Homo sapiens, UniProt O15530); assay: Kinome profiling PDK1; format: biochemical; details: read-out: Inhibitory activity PDK1; for inhibition at 0.1 µM: 100 nM
T4 sequence (O15530 1-556): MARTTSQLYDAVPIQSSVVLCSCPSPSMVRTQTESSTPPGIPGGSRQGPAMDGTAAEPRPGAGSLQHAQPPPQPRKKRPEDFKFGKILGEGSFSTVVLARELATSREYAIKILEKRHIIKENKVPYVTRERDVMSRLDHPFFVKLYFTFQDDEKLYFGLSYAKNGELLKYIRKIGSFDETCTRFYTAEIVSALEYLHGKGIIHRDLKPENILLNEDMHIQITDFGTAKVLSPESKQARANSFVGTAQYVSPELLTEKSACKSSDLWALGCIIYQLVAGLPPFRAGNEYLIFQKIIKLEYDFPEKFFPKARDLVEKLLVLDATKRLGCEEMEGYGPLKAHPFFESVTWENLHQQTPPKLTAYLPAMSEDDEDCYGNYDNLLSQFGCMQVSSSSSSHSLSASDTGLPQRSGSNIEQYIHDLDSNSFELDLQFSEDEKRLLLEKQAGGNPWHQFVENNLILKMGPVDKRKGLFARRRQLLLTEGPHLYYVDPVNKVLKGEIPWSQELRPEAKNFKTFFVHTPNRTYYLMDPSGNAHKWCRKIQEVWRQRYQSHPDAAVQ
Procedure: as §1

[9] = molecular target: FGFR2 (Homo sapiens, UniProt P21802); assay: Kinome profiling FGFR2; format: biochemical; details: read-out: Inhibitory activity FGFR2; for inhibition at 0.1 µM: 100 nM
Sequence of FGFR2 (P21802 22-821): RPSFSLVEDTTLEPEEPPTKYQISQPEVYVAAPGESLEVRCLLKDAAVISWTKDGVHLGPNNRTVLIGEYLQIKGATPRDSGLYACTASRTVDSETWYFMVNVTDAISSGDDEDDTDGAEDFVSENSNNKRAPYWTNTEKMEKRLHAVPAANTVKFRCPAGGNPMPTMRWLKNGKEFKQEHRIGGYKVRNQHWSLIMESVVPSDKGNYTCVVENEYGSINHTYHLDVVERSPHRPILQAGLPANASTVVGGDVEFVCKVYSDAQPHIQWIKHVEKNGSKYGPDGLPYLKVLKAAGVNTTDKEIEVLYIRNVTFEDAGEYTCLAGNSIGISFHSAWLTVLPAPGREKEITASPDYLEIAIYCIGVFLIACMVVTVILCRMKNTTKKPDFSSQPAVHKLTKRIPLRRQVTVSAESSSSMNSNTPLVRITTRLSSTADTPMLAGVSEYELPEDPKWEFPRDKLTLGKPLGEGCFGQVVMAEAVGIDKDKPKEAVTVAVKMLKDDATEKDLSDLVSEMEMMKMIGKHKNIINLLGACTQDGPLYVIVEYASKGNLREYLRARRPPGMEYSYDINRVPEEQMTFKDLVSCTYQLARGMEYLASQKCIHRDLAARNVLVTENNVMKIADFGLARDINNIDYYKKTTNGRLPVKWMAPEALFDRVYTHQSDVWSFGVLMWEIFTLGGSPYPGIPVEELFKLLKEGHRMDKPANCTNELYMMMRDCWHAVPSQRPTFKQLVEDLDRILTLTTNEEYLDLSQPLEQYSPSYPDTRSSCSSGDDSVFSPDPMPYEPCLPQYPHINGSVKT
Procedure: as §1

[10] = molecular target: PAK3 (Homo sapiens, UniProt O75914); assay: Kinome profiling PAK3; format: biochemical; details: read-out: Inhibitory activity PAK3; for inhibition at 0.1 µM: 100 nM
Sequence of PAK3 (O75914 whole entry): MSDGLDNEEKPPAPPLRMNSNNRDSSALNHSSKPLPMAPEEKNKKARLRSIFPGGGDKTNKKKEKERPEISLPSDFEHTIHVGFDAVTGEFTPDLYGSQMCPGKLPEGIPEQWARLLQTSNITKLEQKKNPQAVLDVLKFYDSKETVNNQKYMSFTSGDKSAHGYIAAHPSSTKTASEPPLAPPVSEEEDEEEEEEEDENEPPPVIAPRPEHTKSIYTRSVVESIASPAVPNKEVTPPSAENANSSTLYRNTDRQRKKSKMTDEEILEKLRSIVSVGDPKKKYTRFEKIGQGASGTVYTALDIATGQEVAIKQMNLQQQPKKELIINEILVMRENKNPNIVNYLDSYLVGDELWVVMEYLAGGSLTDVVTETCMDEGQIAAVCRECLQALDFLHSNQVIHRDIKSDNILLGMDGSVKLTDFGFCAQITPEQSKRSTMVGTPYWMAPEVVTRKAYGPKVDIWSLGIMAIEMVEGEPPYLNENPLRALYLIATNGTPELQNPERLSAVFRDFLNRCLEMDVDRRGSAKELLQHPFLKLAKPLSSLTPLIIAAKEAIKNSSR
Procedure: as §1

[11] = Table 4, read-out: Inhibitory Activity PDGFR-BETA
[12] = read-out: Inhibitory activity PDGFRβ

Sequence of KDR (P35968 20-1356): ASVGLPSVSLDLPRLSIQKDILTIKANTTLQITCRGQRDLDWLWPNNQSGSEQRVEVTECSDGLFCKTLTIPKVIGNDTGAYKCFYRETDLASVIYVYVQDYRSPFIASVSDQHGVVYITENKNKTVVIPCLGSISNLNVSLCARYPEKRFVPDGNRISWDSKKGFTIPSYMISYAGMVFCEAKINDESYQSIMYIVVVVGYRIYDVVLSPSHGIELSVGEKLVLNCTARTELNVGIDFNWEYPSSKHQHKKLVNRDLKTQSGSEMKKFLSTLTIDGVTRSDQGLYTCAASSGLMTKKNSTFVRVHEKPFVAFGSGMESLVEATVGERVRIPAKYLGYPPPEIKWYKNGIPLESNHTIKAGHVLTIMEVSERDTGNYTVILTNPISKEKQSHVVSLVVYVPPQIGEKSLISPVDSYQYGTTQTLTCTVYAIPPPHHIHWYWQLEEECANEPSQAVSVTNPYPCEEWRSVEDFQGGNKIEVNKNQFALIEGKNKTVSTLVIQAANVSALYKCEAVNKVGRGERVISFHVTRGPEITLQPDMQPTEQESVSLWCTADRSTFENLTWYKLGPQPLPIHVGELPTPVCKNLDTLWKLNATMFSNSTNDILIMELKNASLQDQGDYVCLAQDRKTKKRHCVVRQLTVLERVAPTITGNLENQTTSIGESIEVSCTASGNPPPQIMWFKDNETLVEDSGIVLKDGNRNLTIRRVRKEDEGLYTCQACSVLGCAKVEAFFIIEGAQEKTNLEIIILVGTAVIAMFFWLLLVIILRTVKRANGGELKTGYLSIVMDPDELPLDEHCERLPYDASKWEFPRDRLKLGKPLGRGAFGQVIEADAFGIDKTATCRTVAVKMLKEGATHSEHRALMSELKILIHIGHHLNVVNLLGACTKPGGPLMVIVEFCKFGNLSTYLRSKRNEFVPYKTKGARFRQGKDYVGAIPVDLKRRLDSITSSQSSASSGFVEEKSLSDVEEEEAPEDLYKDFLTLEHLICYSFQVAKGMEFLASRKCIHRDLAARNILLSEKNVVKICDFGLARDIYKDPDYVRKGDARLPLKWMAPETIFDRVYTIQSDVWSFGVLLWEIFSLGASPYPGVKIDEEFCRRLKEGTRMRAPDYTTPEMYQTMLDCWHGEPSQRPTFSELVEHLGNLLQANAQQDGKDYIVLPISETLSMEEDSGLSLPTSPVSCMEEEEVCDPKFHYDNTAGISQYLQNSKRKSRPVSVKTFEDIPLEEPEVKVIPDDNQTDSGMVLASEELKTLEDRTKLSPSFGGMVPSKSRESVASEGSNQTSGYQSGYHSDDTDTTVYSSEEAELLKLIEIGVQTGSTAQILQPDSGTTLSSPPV

| Structure (SMILES) | inhibition at 0.1 µM [1] [%] | inhibition at 1 µM [1] [%] | inhibition at 0.1 µM [2] [%] | inhibition at 1 µM [2] [%] | inhibition at 0.1 µM [3] [%] | inhibition at 1 µM [3] [%] | inhibition at 0.1 µM [4] [%] | inhibition at 1 µM [4] [%] | ΔTm at 10 µM [5] [°C] | ΔTmDiff. [5] | ΔT ALK2 [5] [°C] | ΔT Diff. [5] [°C] | inhibition at 0.1 µM [6] [%] | inhibition at 1 µM [6] [%] | inhibition at 0.1 µM [7, 12] [%] | inhibition at 1 µM [7, 12] [%] | inhibition at 0.1 µM [8] [%] | inhibition at 1 µM [8] [%] | inhibition at 0.1 µM [9] [%] | inhibition at 1 µM [9] [%] | other results |
| --- | --- | --- | --- | --- | --- | --- | --- | --- | --- | --- | --- | --- | --- | --- | --- | --- | --- | --- | --- | --- | --- |
| COc1cc(-c2cc(-c3ccc(N4CCNCC4)cc3)cnc2C)cc(OC)c1OC [Compound 10, 1-(4-(6-methyl-5-(3,4,5-trimethoxyphenyl)pyridin-3-yl)phenyl)piperazine] | 0 | 3 | 8 | 30 | 0 | -1 | -1 | 2 | 13.7 | 4.0 | 13.7 | 4.0 | 4 | 4 | 17 | 64 | 3 | 6 | -1 | 0 | inhibition at 0.1 µM [7, 11]: 17%; inhibition at 1 µM [7, 11]: 64%; inhibition at 0.1 µM [10]: 2%; inhibition at 1 µM [10]: 2% |
| COc1cc(-c2cc(-c3ccc(N4CCNCC4)cc3)cnc2N)cc(OC)c1OC [Compound 15, 5-(4-(piperazin-1-yl)phenyl)-3-(3,4,5-trimethoxyphenyl)pyridin-2-amine] | 6 | 22 | 35 | 82 | 21 | -1 | 6 | 50 | 15.1 | 1.2 | 15.1 | 1.2 | 1 | 1 | 47 | 77 | 3 | 3 | 2 | 5 | inhibition at 0.1 µM [10]: 1%; inhibition at 1 µM [10]: 1% |
